Legend:
[1] = for surface tension liquid-gas: Ring tensiometer; for viscosity / speed of sound / mass density: 101.33 kPa, Liquid; for speed of sound: Pulse-echo method; for mass density: Vibrating tube method
[2] = refractive index (Na D-line) (dimensionless); conditions: 101.33 kPa, Liquid, Standard Abbe refractometry

CCn1cc[n+](C)c1.COS(=O)(=O)[O-] [1-ethyl-3-methylimidazolium methylsulfate]
Conditions	mass density, [1] [kg/m3]	refractive index, [2]	speed of sound, [1] [m/s]	surface tension liquid-gas, [1] [mN/m]	viscosity, [1] [mPa·s]
298.15 K	1292	1.4741	1762.1	39.8	94.91
303.15 K	1289	1.4739	1750.4	39.5	76.8
308.15 K	1285	1.4735	1738.7	39.2	61.66
313.15 K	1282	1.4721	1727	38.9	51.28
318.15 K	1279	1.4716	1715.5	38.8	42.42
323.15 K	1275	1.4706	1704	38.4	35.33
328.15 K	1272	1.4702	1692.6	38.2	30.11
333.15 K	1268	1.4698	1681.3	38	26.25

CCCCCCn1cc[n+](C)c1.F[P-](F)(F)(F)(F)F [1-hexyl-3-methylimidazolium hexafluorophosphate]
Conditions	mass density, [1] [kg/m3]	refractive index, [2]	speed of sound, [1] [m/s]	surface tension liquid-gas, [1] [mN/m]	viscosity, [1] [mPa·s]
298.15 K	1292	1.4179	1424.4	37.2	349.17
303.15 K	1288	1.4161	1411.3	36.9	253.96
308.15 K	1284	1.4148	1399.6	36.6	188.77
313.15 K	1280	1.4134	1386.7	36.3	142.99
318.15 K	1276	1.4115	1374.9	36	110.24
323.15 K	1272	1.4104	1363.4	35.7	86.42
328.15 K	1268	1.4088	1352.1	35.4	68.87
333.15 K	1264	1.4075	1340.8	35.1	55.62

Source: the NIST ThermoML archive (doi:10.1021/je500093z)
